Measurements reported in BindingDB's records for patent US9120808 (Nabriva Therapeutics, 2015).
Where “and” joins values, the source holds several entries; their conditions need not be identical. Equal entries are not always repeated.

Key:
Beta-lactamase = Beta-lactamase (Escherichia coli (strain K12), UniProt P00811); experiment: Cell Free Inhibition Assay; conditions: pH 7; 37 °C
Experimental: (§1) Assays are performed with beta -lactamases expressed in the pET system (Novagen, San Diego, Calif.) without signal peptides. They contain an N-terminal hexa-Histidine tag that is used for purification on Ni-NTA (Qiagen, Hilden, Germany). The compounds are prepared as 50 mM stocks in DMSO and diluted into buffer P1 (50 mM phosphate, pH 7) to a final concentration of 10% DMSO. All further dilutions are done in P2 (P1 with 10% DMSO). Enzyme and compound dilutions are pre-incubated for 10 min at 37 C. and the reaction is started with the addition of pre-warmed (37 C.) […]. The change in absorption at 490 nm is followed at 37 C. for 10 min with 30 s intervals.

Beta-lactamase TEM = Beta-lactamase TEM (Escherichia coli, UniProt P62593); experiment: Cell Free Inhibition Assay; conditions: pH 7; 37 °C
Experimental: as §1

Sequence of Beta-lactamase (P00811 whole entry): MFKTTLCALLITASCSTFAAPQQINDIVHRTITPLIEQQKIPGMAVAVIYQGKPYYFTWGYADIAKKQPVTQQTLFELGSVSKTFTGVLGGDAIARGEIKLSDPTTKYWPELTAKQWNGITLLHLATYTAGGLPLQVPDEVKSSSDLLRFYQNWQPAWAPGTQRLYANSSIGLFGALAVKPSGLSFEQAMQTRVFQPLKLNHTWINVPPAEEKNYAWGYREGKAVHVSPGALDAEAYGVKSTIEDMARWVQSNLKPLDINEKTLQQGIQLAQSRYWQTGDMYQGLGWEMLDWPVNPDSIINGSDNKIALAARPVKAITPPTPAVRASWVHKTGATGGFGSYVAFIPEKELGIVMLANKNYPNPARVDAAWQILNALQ
Sequence of Beta-lactamase TEM (P62593 whole entry): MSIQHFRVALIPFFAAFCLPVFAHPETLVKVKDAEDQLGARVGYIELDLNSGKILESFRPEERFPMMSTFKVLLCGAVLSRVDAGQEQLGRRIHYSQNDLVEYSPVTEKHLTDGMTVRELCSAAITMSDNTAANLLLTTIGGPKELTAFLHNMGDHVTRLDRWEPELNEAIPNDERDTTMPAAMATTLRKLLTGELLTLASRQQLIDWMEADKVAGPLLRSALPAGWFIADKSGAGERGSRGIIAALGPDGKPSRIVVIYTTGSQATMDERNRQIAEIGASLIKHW

Q: O=CC=C1O[C@@H]2CC(=O)N2C1(CC=CCO)C(=O)OCc1ccccc1 (single isomer, unassigned) [US9120808, Example 9] was tested. Which IC50 (Beta-lactamase) did it give?
A: 115 µM and 14.3 µM

Q: For O=C(O)C=C1O[C@@H]2CC(=O)N2C1(C/C=C/c1ccccc1)C(=O)OCc1ccccc1 (single isomer, unassigned) [US9120808, Example 28], which IC50 (Beta-lactamase) is on record?
A: 6.02 µM and 11.7 µM

Q: With COC(=O)C1(C/C=C/c2ccccc2)C(=CC(=O)O)O[C@@H]2CC(=O)N21 (single isomer, unassigned) [US9120808, Example 36] as the molecule, how does the IC50 (Beta-lactamase) read?
A: 41.1 µM and 4.19 µM

Q: Which IC50 (Beta-lactamase) does the source give for O=C1OC(CI)CC1=C1O[C@@H]2CC(=O)N2C1C(=O)OCc1ccccc1 (single isomer, unassigned) [US9120808, Example 42] here?
A: 0.285 µM and 0.385 µM

Q: C=CCC(C=O)=C1O[C@@H]2CC(=O)N2C1C(=O)OCc1ccccc1 (some centres not stated) [US9120808, Example 1] was tested. Which IC50 (Beta-lactamase) did it give?
A: 10.4 µM

Q: With C=CCC1(C(=O)OCc2ccccc2)C(=CC=O)O[C@@H]2CC(=O)N21 (some centres not stated) [US9120808, Example 2] as the molecule, how does the IC50 (Beta-lactamase) read?
A: 58.8 µM

Q: For C=CCC(C=O)=C1O[C@@H]2CC(=O)N2C1(CC=C)C(=O)OCc1ccccc1 (some centres not stated) [US9120808, Example 3], which IC50 (Beta-lactamase) is on record?
A: 95.1 µM

Q: With O=CC(CC=CCO)=C1O[C@@H]2CC(=O)N2C1C(=O)OCc1ccccc1 (some centres not stated) [US9120808, Example 7] as the molecule, how does the IC50 (Beta-lactamase) read?
A: 5.38 µM

Q: Which IC50 (Beta-lactamase) does the source give for CC(=O)OCC=CCC(C=O)=C1O[C@@H]2CC(=O)N2C1C(=O)OCc1ccccc1 (some centres not stated) [US9120808, Example 10] here?
A: 16 µM

Q: Which IC50 (Beta-lactamase) does the source give for C=CCC(C=O)=C1O[C@@H]2CC(=O)N2C1C(=O)OC (some centres not stated) [US9120808, Example 16] here?
A: 0.941 µM

Q: How did the IC50 (Beta-lactamase) turn out when C=CCC1(C(=O)OC)C(=CC=O)O[C@@H]2CC(=O)N21 (some centres not stated) [US9120808, Example 17] was run?
A: 36 µM

Q: C=CCC(C(=O)O)=C1O[C@@H]2CC(=O)N2C1C(=O)OCc1ccccc1 (some centres not stated) [US9120808, Example 24] was tested. Which IC50 (Beta-lactamase) did it give?
A: 4.98 µM

Q: C=CCC(C(=O)O)=C1O[C@@H]2CC(=O)N2C1C(=O)OC (some centres not stated) [US9120808, Example 32] was tested. Which IC50 (Beta-lactamase) did it give?
A: 2.86 µM

Q: For CC1CC(=C2O[C@@H]3CC(=O)N3C2C(=O)O)C(=O)O1 (some centres not stated) [US9120808, Example 50], which IC50 (Beta-lactamase) is on record?
A: 27 µM

Q: For CCCC(C(=O)O)=C1O[C@@H]2CC(=O)N2C1C(=O)O (some centres not stated) [US9120808, Example 51], which IC50 (Beta-lactamase) is on record?
A: 415 µM

Q: With COC(=O)C1C(=C(CCCc2ccccc2)C(=O)O)O[C@@H]2CC(=O)N12 (some centres not stated) [US9120808, Example 53] as the molecule, how does the IC50 (Beta-lactamase) read?
A: 0.541 µM

Q: Which IC50 (Beta-lactamase) does the source give for CCCC(C(=O)O)=C1O[C@@H]2CC(=O)N2C1C(=O)OC (some centres not stated) [US9120808, Example 54] here?
A: 3.42 µM

Q: For CCCC(CO)=C1O[C@@H]2CC(=O)N2C1C(=O)O (some centres not stated) [US9120808, Example 55], which IC50 (Beta-lactamase TEM) is on record?
A: 118 µM

Q: With CCCC1(C(=O)O)/C(=C/CO)O[C@@H]2CC(=O)N21 (some centres not stated) [US9120808, Example 56] as the molecule, how does the IC50 (Beta-lactamase TEM) read?
A: 17.8 µM

Q: Which IC50 (Beta-lactamase) does the source give for COC(=O)C(CCCc1ccccc1)=C1O[C@@H]2CC(=O)N2C1C(=O)OC (some centres not stated) [US9120808, Example 57] here?
A: 5.33 µM

Q: With O=C(O)C(CC=CCN(Cc1ccccc1)C(=O)OCc1ccccc1)=C1O[C@@H]2CC(=O)N2C1C(=O)OCc1ccccc1 (some centres not stated) [US9120808, Example 58] as the molecule, how does the IC50 (Beta-lactamase) read?
A: 4.51 µM

Q: O=C(OCc1ccccc1)C1C(=C2COC(CI)C2)O[C@@H]2CC(=O)N12 (some centres not stated) [US9120808, Example 59] was tested. Which IC50 (Beta-lactamase) did it give?
A: 6.45 µM
